Broadly, the EC30 is the concentration needed for an effect of 30%. Usually pIC50 stands for the IC50 on a negative log10 scale, so that one unit is a factor of ten. Low values mean a large IC50, high ones a small IC50.

The text below walks through data of ChEMBL document CHEMBL1127253, “Synthesis and in vitro gastrointestinal motility enhancing activity of 3-aryl-2-imidazolidinylidene propanedinitrile derivatives” (Bioorg Med Chem Lett, 1994).

pIC50: −log10 of the molar value.

The species entered for assay [1] is Cavia porcellus. In words: In vitro gastrointestinal motility enhancing activity expressed as concentration of compound producing 30% potentiation of contractions induced by electrical stimulation in guinea pig. The format is functional.
Assay [2] addresses T1, Acetylcholinesterase (Rattus norvegicus, UniProt P37136).
T1 sequence (P37136 whole entry): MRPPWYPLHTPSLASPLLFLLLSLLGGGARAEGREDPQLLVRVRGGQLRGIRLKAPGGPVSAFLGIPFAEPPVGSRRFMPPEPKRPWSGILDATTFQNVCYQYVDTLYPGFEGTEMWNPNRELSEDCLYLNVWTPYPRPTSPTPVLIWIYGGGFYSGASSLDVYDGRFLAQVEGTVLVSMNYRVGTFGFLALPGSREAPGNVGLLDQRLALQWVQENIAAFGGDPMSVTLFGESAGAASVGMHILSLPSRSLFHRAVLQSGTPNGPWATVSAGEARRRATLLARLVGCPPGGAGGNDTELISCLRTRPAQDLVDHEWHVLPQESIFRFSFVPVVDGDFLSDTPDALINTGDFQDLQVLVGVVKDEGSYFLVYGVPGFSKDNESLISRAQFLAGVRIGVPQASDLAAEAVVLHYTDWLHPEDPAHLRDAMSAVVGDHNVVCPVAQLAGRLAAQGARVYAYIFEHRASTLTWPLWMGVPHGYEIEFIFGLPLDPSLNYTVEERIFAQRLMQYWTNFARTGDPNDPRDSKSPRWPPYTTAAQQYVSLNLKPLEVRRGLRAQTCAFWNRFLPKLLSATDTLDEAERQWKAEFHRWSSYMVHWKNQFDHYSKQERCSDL
The assay is described as follows: Inhibitory activity against acetylcholinesterase (AChE) from rat brain was determined.

`Cc1cccc(N2CCN(CCNCc3ccc(CN4CCCCC4)o3)C2=C(C#N)C#N)c1`: the EC30 in assay [1] was 0.019 µM. Further, the pIC50 in assay [2] is 7.89.
On the same counts, the results for `N#CC(C#N)=C1NCCN1CCNCc1ccc(CN2CCCCC2)o1` are 0.016 µM and 7.52.
For `COc1cccc(N2CCN(CCNCc3ccc(CN4CCCCC4)o3)C2=C(C#N)C#N)c1` the same measures were 0.014 µM and 7.85.
As to `COc1ccc(N2CCN(CCNCc3ccc(CN4CCCCC4)o3)C2=C(C#N)C#N)cc1`, the EC30 in assay [1] came to 0.012 µM. For the same compound, the negative-log IC50 (pIC50) in assay [2] was 7.72.
On to `COc1ccccc1N1CCN(CCNCc2ccc(CN3CCCCC3)o2)C1=C(C#N)C#N`, for which, in assay [1], the EC30 was found to be 0.49 µM. In assay [2], this compound gave a pIC50 of 7.18.
In the case of `N#CC(C#N)=C1N(CCNCc2ccc(CN3CCCCC3)o2)CCN1c1ccccc1`, the EC30 in assay [1] amounted to 0.01 µM. The pIC50 in assay [2] is 7.85.
On the same counts, the results for `Cc1ccc(N2CCN(CCNCc3ccc(CN4CCCCC4)o3)C2=C(C#N)C#N)cc1` are 0.052 µM and 8.66.
